The values below come from patent US7923465B2, “Cannabinoid receptor ligands, pharmaceutical compositions containing them, and process for their preparation” (priority 2005, dated 2011).

Read-outs that look alike come from different tables or passages of the source.

The target of one data set is CB1 (Rattus norvegicus, UniProt P20272). The data set can be described thus: Rat CB1 receptor binding using brain membrane, [3H]SR141716A displacement (Protocol I). The arrangement: CB1 receptor present in a rat brain membrane preparation; from tissue; host or cells: rat brain membrane; inhibition: dose or concentration left out as unconfirmed. Conditions: 1 h; rat brain membrane, [3H]SR141716A displacement; read-out: % Displacement Protocol I.

The target in data set [1] is T1, hCB2 (Homo sapiens, UniProt P34972). The data set is described as follows: Agonism of CB2 receptors expressed in CHO cells, forskolin cAMP assay (Protocol IX.2). It counts as cell-based. Also on record: expressed in transfected cells; host or cells: CHO (h-CB2/CHO, G418-selected). Conditions: cAMP. The method, boiled down: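 CHO cells expressing h-CB2 were treated with compound in Krebs buffer with 0.1% FAF BSA and 1 mM IBMX, plus 10 uM forskolin, for 30 minutes at room temperature. cAMP in lysates was measured by chemiluminescence. EC50 was derived by nonlinear regression of dose–response curves, with CP 55,940 at 10 μM as reference for CB2.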
In general terms: Changes in cAMP serve as a functional read-out for many G protein-coupled receptors.

Data set [2] has as its target T2, hCB1 (Homo sapiens, UniProt P21554). The data set can be described thus: Antagonism of CB1 receptors expressed in CHO cells, cAMP assay against CP 55,940 (Protocol IX.1). Also on record: expressed in transfected cells; host or cells: CHO (h-CB1/CHO, G418-selected). Type of data set: cell-based. Particulars: at 10 uM, h-CB1/CHO cells, cAMP, vs 30 nM CP 55,940; for inhibition at 10 µM: read-out: hCB1 Antagonism.

Data set [3] addresses T2, hCB1. The data set can be described thus: Agonism of CB1 receptors expressed in CHO cells, forskolin cAMP assay (Protocol IX.2). Conditions: at 10 uM, h-CB1/CHO cells, cAMP; for activation at 10 µM: CHO. It counts as cell-based. Also on record: expressed in transfected cells; host or cells: CHO (h-CB1/CHO, G418-selected). As to the method: (§1) IX. Assay for Determining Agonist and Antagonist Activity to CB1 and CB2 Receptors
2. Agonism of CB1/CB2 Receptors Expressed in CHO Cells
h-CB1/CHO or h-CB2/CHO cells were grown in HAM's F12 DMEM medium (Sigma) with 10% FBS (Hyclone), 1% penicillin-streptomycin solution and 400 μg/ml of G418 (Sigma). 5000 cells were seeded per well in a 96 well plate and incubated for 24 hours at 37° C. in 5% CO2. On the day of assay, cells were washed with warm Krebs Buffer containing 0.1% fatty acid free (FAF) BSA (Sigma) and re-suspended in the same buffer containing 1 mM IBMX. […] At the end of incubation, cells were lysed using lysis reagent from the cAMP estimation kit and cAMP was quantitated by chemiluminescence method described in the manufacturer's instructions (DiscoveRX). EC50 values were calculated from dose response curves by nonlinear regression analysis using PRISM software.

The target in data set [4] is T1, hCB2. The data set can be described thus: In vitro binding assay using hCB2-CHO membranes, [3H]-CP-55,940 displacement (Protocol IV). Conditions: for inhibition at 0.3 µM: 1 h, read-out: % Displacement Protocol IV. The arrangement: expressed in transfected cells; host or cells: CHO (hCB2-CHO, generated in-house). The method, boiled down:
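Displacement of [3H]-CP-55,940 (0.75 nM) from membranes of CHO cells expressing human CB2 (25-50 μg) was measured in Tris-BSA buffer pH 7.4 with 5 mM MgCl2, 1 mM EDTA, 0.1% BSA, 1 h at 30 °C. Test compounds were at 300 nM final; nonspecific binding defined with 0.5 μM CP-55,940. Values are % displacement of specific binding.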

In data set [5] the target is T1, hCB2. The data set is described as follows: Antagonism of CB2 receptors expressed in CHO cells, cAMP assay against CP 55,940 (Protocol IX.1). Type of data set: cell-based. The arrangement: expressed in transfected cells; host or cells: CHO (h-CB2/CHO, G418-selected). Conditions: h-CB2/CHO cells, vs 10 nM CP 55,940; for inhibition at 10 µM: CHO. As to the method: as §1
1. Antagonism of CB1/CB2 Receptors Expressed in CHO Cells.
h-CB1/CHO or h-CB2/CHO cells were grown in HAM's F12 DMEM medium (Sigma) with 10% FBS (Hyclone), 1% penicillin-streptomycin solution and 400 μg/ml of G418 (Sigma). 5000 cells were seeded per well in a 96 well plate and incubated for 24 hours at 37° C. in 5% CO2. On the day of assay, cells were washed with warm Krebs buffer containing 0.1% fatty acid free (FAF) BSA (Sigma) and re-suspended in the same buffer containing 1 mM IBMX. Test antagonist or reference compound (AM 251 (1-(2,4-dichlorophenyl)-5-(4-iodophenyl)-4-methyl-N-(1-piperidyl)pyrazole-3-carboxamide) for CB1 and SR144528 for CB2) diluted in FAFBSA+IBMX+Krebs buffer was added to the cells and incubated for 10 minutes at room temperature. CP 55,940 (30 nM final concentration for CB1 testing and 10 nM of the same for CB2 testing) was added to cells followed by forskolin (10 μM final concentration) and incubated for 30 minutes at room temperature. At the end of incubation, cells were lysed using lysis reagent from the cAMP estimation kit and cAMP was quantitated by the chemiluminescence method described in the manufacturer's instructions (DiscoveRX). EC50 values were calculated from dose response curves by nonlinear regression analysis using PRISM software.

The target of data set [6] is T2, hCB1. The data set is described as follows: In vitro binding assay using hCB1-CHO membranes, [3H]-CP-55,940 displacement (Protocol II). Also on record: expressed in transfected cells; host or cells: CHO (hCB1-CHO, generated in-house). The gist of the method:
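Incubated 1 h at 37° C, stopped by rapid vacuum filtration on PEI-precoated GF/B filters, bound radioactivity counted by liquid scintillation.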

Setting [7] is: hCB2 Agonism IC50, h-CB2/CHO cells.
Setting [8] is: hCB2-CHO membranes, [3H]-CP-55,940 displacement.
Where [9] appears, read: h-CB2/CHO cells, read-out: hCB2 Agonism IC50.

T1 sequence (P34972 whole entry): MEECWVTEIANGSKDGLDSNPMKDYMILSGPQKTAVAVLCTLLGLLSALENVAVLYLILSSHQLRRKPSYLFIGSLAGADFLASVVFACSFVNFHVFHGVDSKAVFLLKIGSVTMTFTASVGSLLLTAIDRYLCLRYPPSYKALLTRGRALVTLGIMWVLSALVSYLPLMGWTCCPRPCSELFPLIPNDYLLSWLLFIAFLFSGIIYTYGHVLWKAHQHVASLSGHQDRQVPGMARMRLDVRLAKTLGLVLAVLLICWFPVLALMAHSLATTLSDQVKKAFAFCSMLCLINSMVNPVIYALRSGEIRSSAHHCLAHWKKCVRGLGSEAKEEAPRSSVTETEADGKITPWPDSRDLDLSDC
T2 sequence (P21554 whole entry): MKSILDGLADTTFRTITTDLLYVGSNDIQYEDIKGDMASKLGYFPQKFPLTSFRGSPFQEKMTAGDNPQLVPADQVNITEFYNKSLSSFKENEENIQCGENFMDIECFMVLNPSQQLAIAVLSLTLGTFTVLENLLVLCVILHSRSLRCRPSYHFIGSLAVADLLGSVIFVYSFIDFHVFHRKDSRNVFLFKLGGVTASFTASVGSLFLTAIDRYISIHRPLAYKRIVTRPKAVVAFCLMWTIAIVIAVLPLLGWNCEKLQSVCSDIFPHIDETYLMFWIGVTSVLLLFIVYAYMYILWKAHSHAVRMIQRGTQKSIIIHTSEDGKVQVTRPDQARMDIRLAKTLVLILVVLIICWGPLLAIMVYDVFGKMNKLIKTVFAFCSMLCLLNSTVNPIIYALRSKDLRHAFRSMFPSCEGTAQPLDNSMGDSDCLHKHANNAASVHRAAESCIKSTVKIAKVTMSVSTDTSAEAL
Sequence of CB1 (P20272 whole entry): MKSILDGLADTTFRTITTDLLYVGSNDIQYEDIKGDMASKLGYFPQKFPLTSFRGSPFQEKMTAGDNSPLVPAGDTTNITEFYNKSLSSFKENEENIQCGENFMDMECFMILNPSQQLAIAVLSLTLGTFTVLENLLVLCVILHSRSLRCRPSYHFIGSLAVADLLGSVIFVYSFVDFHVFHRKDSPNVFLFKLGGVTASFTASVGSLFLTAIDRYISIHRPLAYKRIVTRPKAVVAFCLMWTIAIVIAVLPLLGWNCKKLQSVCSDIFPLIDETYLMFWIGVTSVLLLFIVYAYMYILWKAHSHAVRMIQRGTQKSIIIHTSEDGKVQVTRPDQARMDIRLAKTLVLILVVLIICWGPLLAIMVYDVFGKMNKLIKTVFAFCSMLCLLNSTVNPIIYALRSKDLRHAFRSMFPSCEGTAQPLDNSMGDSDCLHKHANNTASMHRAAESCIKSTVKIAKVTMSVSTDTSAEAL

Regarding `O=C(NCc1ccccc1)c1n[nH]c2c1C1CC3CC(CC2C3)C1` [Example 186, N(7)-Benzyl-5,6-diazatetracyclo[7.3.1.1^3,11.0^4,8]tetradeca-4(8)-6-diene-7-carboxamide], the inhibition at CB1 worked out at 17.2%. The IC50 – broadly, the midpoint of a concentration-inhibition curve – at hCB2 [1] (setting [7]) came to 8.51 nM. For the same molecule, the results for the inhibition at 10 µM at hCB1 [2] and at hCB2 [5] were 0% and 21%, respectively. At hCB1 [3], the activation at 10 µM came out at 29.4%. In addition, the inhibition at 0.3 µM on hCB2 [4] (setting [8]) was determined as 59.1%.
Consider `O=C(Nc1ccc(F)cc1F)c1nn(-c2ccc(Cl)cc2Cl)c2c1C1CCC2C1` (stereo not drawn) [Example 244, N(3)-(2,4-Difluorophenyl)-1-(2,4-dichlorophenyl)-4,5,6,7-tetrahydro-1H-4,7-methano-indazole-3-carboxamide], for which the melting point (commonly the temperature of the solid-liquid transition) is 152 to 155 °C. Further, the IC50 at hCB2 [1] (setting [9]) worked out at 5.66 nM. Moreover, at hCB1 [2], the inhibition at 10 µM turned out to be 61.5%. At hCB1 [3], the activation at 10 µM was found to be 0%. Also, the inhibition at 0.3 µM on hCB2 [4] turned out to be 88.3%. Also, on hCB2 [5], the inhibition at 10 µM was 25.3%.
Molecule `O=C(NCc1ccc(F)cc1F)c1nn(-c2ccc(Cl)cc2Cl)c2c1C1CCC2C1` (stereo not drawn) [Example 247, N(3)-(2,4-Difluorobenzyl)-1-(2,4-dichlorophenyl)-4,5,6,7-tetrahydro-1H-4,7-methano-indazole-3-carboxamide] gave a melting point of 73 to 76 °C. In addition, 5.44 nM corresponded to half-maximal inhibition against hCB2 [1] (setting [7]) (IC50). Further, the inhibition at 10 µM at hCB1 [2] is 75.3%. The molecule also returned an activation at 10 µM on hCB1 [3] of 0%. Moreover, the inhibition at 0.3 µM on hCB2 [4] (setting [8]) amounted to 79.1%. This molecule also returned an inhibition at 10 µM against hCB2 [5] of 29.2%.
The molecule `O=C(NCc1ccccc1F)c1nn(-c2ccc(Cl)cc2Cl)c2c1C1CCC2C1` (stereo not drawn) [Example 245, N(3)-(2-Fluorobenzyl)-1-(2,4-dichlorophenyl)-4,5,6,7-tetrahydro-1H-4,7-methano-indazole-3-carboxamide] came in with a melting point of 54 °C. The same molecule gave an IC50 on hCB2 [1] (setting [7]) of 50.4 nM. Also, the inhibition at 10 µM on hCB1 [2] came out at 70.7%. The same molecule returned an activation at 10 µM on hCB1 [3] of 0%. Besides, on hCB2 [4] (setting [8]), the inhibition at 0.3 µM stood at 84.8%. The molecule further registered an inhibition at 10 µM against hCB2 [5] of 32.9%.
As for `CC(C)(C)NC(=O)c1nn(-c2ccc(F)cc2)c2c1C1CCC2C1` (stereo not drawn) [Example 323, N(3)-(tert-Butyl)-1-(4-fluorophenyl)-4,5,6,7-tetrahydro-1H-4,7-methano-indazole-3-carboxamide], the melting point is 131 to 133 °C. Moreover, the half-maximal inhibitory concentration (IC50) on hCB2 [1] (setting [9]) worked out at 14.1 nM. The inhibition at 10 µM at hCB1 [2] came out at 0%. The molecule further returned an activation at 10 µM at hCB1 [3] of 0%. Besides, the inhibition at 0.3 µM on hCB2 [4] stood at 82.5%. The molecule further registered an inhibition at 10 µM at hCB2 [5] of 18%.
`O=C(NNc1ccccc1F)c1nn(-c2ccc(F)cc2F)c2c1C1CCC2C1` (stereo not drawn) [Example 288, N(3)-[(2-Fluorophenyl)amino]-1-(2,4-difluorophenyl)-4,5,6,7-tetrahydro-1H-4,7-methano-indazole-3-carboxamide] had a melting point of 172 to 175 °C. At hCB2 [1] (setting [7]), this molecule gave an IC50 of 4.76 nM. For the same molecule, the inhibition at 10 µM on hCB1 [2] was found to be 55.3%. At hCB1 [3], this molecule gave an activation at 10 µM of 0%. Also, the inhibition at 0.3 µM at hCB2 [4] (setting [8]) came to 60.8%. The inhibition at 10 µM on hCB2 [5] amounted to 17.1%.
Consider `O=C(NCC1CCOCC1)c1nn(-c2ccc(F)cc2F)c2c1C1CCC2C1` (stereo not drawn) [Example 316, N(3)-(Tetrahydro-2H-4-pyranmethyl)-1-(2,4-difluorophenyl)-4,5,6,7-tetrahydro-1H-4,7-methano-indazole-3-carboxamide], for which the concentration for half-maximal inhibition (IC50) on hCB2 [1] (setting [9]) lay within 1.2 to 4.27 nM. The “hCB1 Antagonism” value at hCB1 [2] is on record as 2% at 10 uM. Moreover, the “hCB1 Agonism” value at hCB1 [3] stood at 18.53% at. In addition, the “% Displacement Protocol II” value at hCB1 [6] worked out at 13.83%. Further, the “% Displacement Protocol IV” value on hCB2 [4] (setting [8]) worked out at 66.65%. Also, the “hCB2 Antagonism” value at hCB2 [5] (at 10 uM) came out at 37.63% at.
In the case of `O=C(NC1CCC1)c1nn(-c2ccc(F)cc2F)c2c1C1CCC2C1` (stereo not drawn) [Example 315, N(3)-Cyclobutyl-1-(2,4-difluorophenyl)-4,5,6,7-tetrahydro-1H-4,7-methano-indazole-3-carboxamide], the melting point lay within 123 to 125 °C. Also, the IC50 at hCB2 [1] (setting [9]) was 0.16 to 1.76 nM. Also, on hCB1 [2], the inhibition at 10 µM came to 1%. Besides, the activation at 10 µM on hCB1 [3] was determined as 12.6%. In addition, the inhibition at 0.3 µM on hCB2 [4] is 64.2%. The molecule further showed an inhibition at 10 µM on hCB2 [5] of 16.1%.
